These results are taken from article PMC8781472, “Two Novel Palbociclib-Resorcinol and Palbociclib-Orcinol Cocrystals with Enhanced Solubility and Dissolution Rate” (Pharmaceutics, 2021).

In general, IC50 refers to the concentration at which inhibition is half-maximal. Broadly, the AUC(0-t) is exposure summed from dosing to a finite time, without extrapolation to infinity. For orientation: Cmax means the highest concentration seen after dosing. By MRT is commonly meant the average time that molecules of a dose stay in the body. By Tmax is commonly meant the time from dosing to the highest level. For orientation: half-life means the time in which the quantity being followed falls by half.

Details of data set [1]: method as in doi:10.1021/acs.cgd.7b01281. The following applies: cited from earlier work.
Data set [2] in a line: In vitro cytotoxicity MTT assay. It is filed as cell-based, human. The following applies: human, normal HUVEC cell line. Here is the method:
(§1) The human umbilical vein endothelial cell line (HUVEC) was a gift from Prof. F Y Chen (Xiangya Hospital, Changsha, China). The cells were grown in DMEM (Hyclone, Logan, UT, USA) supplied with 10% fetal bovine serum (Hyclone, Logan, UT, USA) and 1% penicillin/streptomycin mixture. Furthermore, all the cells were cultured at a 37 ℃, 5% CO2 humidified incubator. The cytotoxicity activity of compounds PAL, PAL-RES and PAL-ORC for normal HUVEC cell line was assessed via the MTT assay. The cells were cultured at a density of 8000 cells/well in a 96 well plate. Five different concentrations (0, 0.1, 1, 10 and 100 μM) of compounds PAL, PAL-RES and PAL-ORC in DMSO were subsequently added to the wells then incubated under 5% CO2 at 37 °C for 48 h; 50 μL of MTT (2 mg/mL) was added to each well, and the cells were incubated for another 4 h. Next, the liquid in each well was removed, and DMSO (150 μL) was added. The absorbance (OD values) at 490 nm was measured by a microplate reader (Biotek, SYNERGY HTX, VT, USA). Each concentration was tested in triplicate.
For orientation: Tetrazolium assays rely on reduction of a dye to a coloured formazan, in cell work by metabolically active cells.

The nature of data set [3]: Powder dissolution (paddle method). The following applies: for Equilibrium dissolution: powder, 500 mL phosphate buffer pH 6.8, 37 °C, 50 rpm, 50 mg PAL equivalent. It is filed as physicochemical. Here is the method:
[…] PAL, PAL-RES, and PAL-ORC were ground and passed through a 200 mesh sieve. In total, 50 mg of PAL or a PAL equivalent amount of cocrystal were weighed for the powder dissolution experiment. At 5, 10, 15, 30, 45, 60, 90, 120, 180, 240, 300, 360, 480, 600, 720, 1080, 1440 min, taken out 1 mL of the dissolved sample and […] with an equal volume of fresh medium in order to maintain a constant dissolution system. The PAL concentration was measured using the same method as the IDR part. All the experiments were conducted in triplicate.

A short description of data set [4]: In vivo pharmacokinetic experiments in rats. The following applies: SD rats, single oral dose equivalent to 5 mg/kg PAL, plasma PAL. Also noted: species or system Sprague−Dawley rats. Here is the method: The PK profiles of PAL, PAL-RES and PAL-ORC were determined in adult male Sprague−Dawley rats (SD rats, 200–250 g), which were commercially obtained from Pizhou Oriental Breeding Co., Ltd. (Xuzhou, China). All the experiments were approved by the Ethics and Experimental Animal Committee of Jiangsu Ocean University (Project identification code: 202100021). The rats were housed in standard cages with constant temperature and humidity, and a 12 h light−dark cycling condition was set. Before the commencement of the studies, all the rats were fasted overnight with free access to water for 12 h. Fifteen animals were randomly assigned to three groups (n = 5/group) and intragastrically administrated with PAL, PAL-RES, and PAL-ORC in 0.5% (w/v) aqueous sodium methyl cellulose solution, respectively. A dose equivalent to 5 mg/kg body weight of PAL was used to conduct the evaluation. After the oral administration, blood collections were performed at designated time points (0.5, 1, 2, 4, 6, 8, 12, 24 and 48 h) using centrifuge tubes containing EDTA-K2. Next, the plasma samples were obtained from the whole blood by centrifuging at 4000 rpm for 10 min. The plasma samples were prepared for HPLC analysis by washing with 300 μL methanol, and the PAL concentration was measured using the same method as described in “2.10. Intrinsic dissolution rate (IDR) experiments”. Moreover, the PK parameters were calculated by Phoenix WinNonlin 6.0 pharmacokinetic software package (Certara, Princeton, NJ, USA).

Data set [5] deals with HUVEC. As to the kind of experiment: In vitro cytotoxicity MTT assay. The data set is classed as cell-based, human. The following applies: normal HUVEC cell line, 48 h. The protocol:
as §1

Data set [6] can be described thus: Stress testing (high temperature, high humidity, strong illumination), analysed by PXRD. It is filed as physicochemical. The following applies: high temperature (60 °C), high humidity (92.5% RH), strong illumination (4500 LX). Here is the method: The cocrystals were subjected to a high temperature (60 °C), high humidity (92.5% RH), and strong illumination (4500 lx) condition respectively for stress testing experiments. The samples were analyzed by PXRD to detect possible solid-state transformation at 0, 5, 10 days.

Data set [7] can be described thus: Intrinsic dissolution rate (IDR) experiments. The following applies: for Dissolution rate compared with PAL: hydrochloric acid solution pH 1.0; for Increase of dissolution rate compared with PAL: phosphate buffer pH 6.8. It is filed as physicochemical. Here is the method: In the IDR experiment, one side of the compact was sealed with melted wax, and the other side was not covered to contact with the solution. The temperature was set to 37 ℃, the paddle speed was 100 rpm, the samples were collected at the corresponding time points (phosphate buffer pH 6.8: 60, 120, 180, 240, 300, 360 min; acetic acid buffer pH 4.5: 1, 2, 3, 5, 7, 10 min; hydrochloric acid solution pH 1.0: […]) and supplemented with the same volume of culture base. Filtered the supernatant (0.22 μm) to remove undissolved particles. The PAL concentration was measured by an LC-20AD HPLC system (Shimadzu, Kyoto, Japan). At 40 °C, an Agilent ZORBAX Eclipse XDB-C18 column (250 mm × 4.6 mm, 5 μm, Agilent, Santa Clara, CA, USA) and a UV detector with a wavelength of 356 nm were used to separate the palbociclib. The mobile phase contained 0.1% acetic acid in methanol and water (80:20, v/v), the flow rate was 0.8 mL/min, and the isocratic elution was 10 min. The results were stated as the average of three replicated experiments.

Data set [8] can be described thus: Accelerated stability testing, analysed by PXRD. The following applies: 40 °C/75% RH for 3 months. It is filed as physicochemical. Here is the method:
For the physical stability studies, the powder samples of the cocrystals were exposed to accelerated condition (YSEI, China) with 40 °C/75% RH for three months; subsequently, the samples were analyzed by PXRD.

As to `O=C1CCc2ccc(OCCCCN3CCN(c4cccc(Cl)c4Cl)CC3)cc2N1` [ARI, aripiprazole], the Maximum aripiprazole concentration in data set [1] is 1.6 mg/L.
`Cc1cc(O)cc(O)c1` [ORC, orcinol]: the IC50 at 48 h in data set [2] is greater than 100 µM.
As to `CC(=O)c1c(C)c2cnc(Nc3ccc(N4CCNCC4)cn3)nc2n(C2CCCC2)c1=O` [PAL, Palbociclib], in data set [2], the IC50 at 48 h is 2.4 ± 0.07 µM. The “Powder dissolution under acidic conditions” value in data set [3] (pH 1.0 or 4.5) is “dissolves completely at pH 1.0 or 4.5 within five minutes”. Also, the Equilibrium dissolution in data set [3] is 20.09%. In data set [4], the Vd stood at 20.48 L/kg. In addition, in data set [4] (male, Sprague-Dawley, rat), the AUC(0-t) is 2620 ng·h/mL, the peak concentration (Cmax) worked out at 347 ng/mL, the MRT was determined as 5.36 h and the Tmax came out at 4 h. Besides, the half-life in data set [4] (male, Sprague-Dawley, rat) was 19.9 h.
As for `CC(=O)c1c(C)c2cnc(Nc3ccc(N4CCNCC4)cn3)nc2n(C2CCCC2)c1=O.Cc1cc(O)cc(O)c1` [PAL-ORC], the IC50 in data set [5] is 0.85 ± 0.13 µM. The “Time physically stable under stress testing conditions” value in data set [6] is listed as “at least 10 days”. The “Intrinsic dissolution rate (slope of fitted IDR line)” value in data set [7] (acetate buffer pH 4.5, 37 °C, 100 rpm) was determined as 0.53 mg/min/cm^2. Besides, in data set [7], the “Dissolution rate compared with PAL” value turned out to be 1.2 times and the “Increase of dissolution rate compared with PAL” value is “two times”. In addition, the Equilibrium dissolution in data set [3] stood at 49.93%. The “Physical stability (PXRD, phase transformation)” value in data set [8] is on record as “physically stable”.
Turning to `CC(=O)c1c(C)c2cnc(Nc3ccc(N4CCNCC4)cn3)nc2n(C2CCCC2)c1=O.Oc1cccc(O)c1` [PAL-RES], the IC50 in data set [5] amounted to 4.02 ± 0.07 µM. Also, in data set [6], the “Time physically stable under stress testing conditions” value is “at least 10 days”. In data set [7] (acetate buffer pH 4.5), the “Change of dissolution rate compared with PAL” value is listed as “only a slight increase in dissolution rate”. In addition, in data set [7], the “Dissolution rate compared with PAL” value is on record as 1.2 times and the “Increase of dissolution rate compared with PAL” value is recorded as “three times”. Also, the Equilibrium dissolution in data set [3] turned out to be 60.22%. In addition, in data set [8], the “Physical stability (PXRD, phase transformation)” value is listed as “physically stable”.
Consider `Oc1cccc(O)c1` [RES, Resorcinol], for which the IC50 at 48 h in data set [2] is greater than 100 µM.
